The IC50 is the point on the concentration scale where inhibition reaches its midpoint. Low values mean greater potency in that assay, high ones weaker potency in that assay.

Data on two compounds can be found in ChEMBL document CHEMBL3627622, “Exploration of labeling by near infrared dyes of the polyproline linker for bivalent-type CXCR4 ligands” (Bioorg Med Chem, 2015).

The target of the assay is C-X-C chemokine receptor type 4 (Homo sapiens, UniProt P61073). The assay can be described thus: Displacement of fluorescently-labeled-TZ14011 from CXCR4 in human Jurkat cells incubated for 30 mins by fluorescence analysis. The format is cell-based.
Chain of C-X-C chemokine receptor type 4 (P61073 whole entry): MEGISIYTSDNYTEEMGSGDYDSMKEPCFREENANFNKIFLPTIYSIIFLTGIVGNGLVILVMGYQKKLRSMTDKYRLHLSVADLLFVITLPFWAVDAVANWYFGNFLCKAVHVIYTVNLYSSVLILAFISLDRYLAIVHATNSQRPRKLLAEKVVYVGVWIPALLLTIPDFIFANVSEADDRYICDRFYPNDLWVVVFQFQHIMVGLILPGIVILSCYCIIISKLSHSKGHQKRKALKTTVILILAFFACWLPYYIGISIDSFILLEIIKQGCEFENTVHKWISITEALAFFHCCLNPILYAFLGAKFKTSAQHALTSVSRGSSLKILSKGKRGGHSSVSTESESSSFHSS

`CC(=O)N[C@@H](CCCCNC(=O)CSC[C@H]1NC(=O)[C@H](Cc2ccc3ccccc3c2)NC(=O)[C@H](CCCNC(=N)N)NC(=O)[C@H](CCCNC(=N)N)NC(=O)[C@@H](Cc2ccc(O)cc2)NC1=O)C(=O)N1CCC[C@H]1C(=O)N1CCC[C@H]1C(=O)N1CCC[C@H]1C(=O)N1CCC[C@H]1C(=O)N1CCC[C@H]1C(=O)N1CCC[C@H]1C(=O)N1CCC[C@H]1C(=O)N1CCC[C@H]1C(=O)N1CCC[C@H]1C(=O)N1CCC[C@H]1C(=O)N1CCC[C@H]1C(=O)N1CCC[C@H]1C(=O)N1CCC[C@H]1C(=O)N1CCC[C@H]1C(=O)N1CCC[C@H]1C(=O)N1CCC[C@H]1C(=O)N1CCC[C@H]1C(=O)N1CCC[C@H]1C(=O)N[C@@H](CCCCNC(=O)CS[C@H]1NC(=O)[C@H](Cc2ccc3ccccc3c2)NC(=O)[C@H](CCCNC(=N)N)NC(=O)[C@H](CCCNC(=N)N)NC(=O)[C@@H](Cc2ccc(O)cc2)NC1=O)C(N)=O` returned an IC50 of 44 nM.

Compound `[N-]=[N+]=NCCCCCC(=O)NCCCC(=O)N[C@@H](CCCCNC(=O)CSC[C@H]1NC(=O)[C@H](Cc2ccc3ccccc3c2)NC(=O)[C@H](CCCNC(=N)N)NC(=O)[C@H](CCCNC(=N)N)NC(=O)[C@@H](Cc2ccc(O)cc2)NC1=O)C(=O)N1CCC[C@H]1C(=O)N1CCC[C@H]1C(=O)N1CCC[C@H]1C(=O)N1CCC[C@H]1C(=O)N1CCC[C@H]1C(=O)N1CCC[C@H]1C(=O)N1CCC[C@H]1C(=O)N1CCC[C@H]1C(=O)N1CCC[C@H]1C(=O)N1CCC[C@H]1C(=O)N1CCC[C@H]1C(=O)N1CCC[C@H]1C(=O)N1CCC[C@H]1C(=O)N1CCC[C@H]1C(=O)N1CCC[C@H]1C(=O)N1CCC[C@H]1C(=O)N1CCC[C@H]1C(=O)N1CCC[C@H]1C(=O)N[C@@H](CCCCNC(=O)CS[C@@H]1NC(=O)[C@H](Cc2ccc3ccccc3c2)NC(=O)[C@H](CCCNC(=N)N)NC(=O)[C@H](CCCNC(=N)N)NC(=O)[C@@H](Cc2ccc(O)cc2)NC1=O)C(N)=O` registered an IC50 of 86 nM.
